Legend:
[1] = target: T1, His tagged PTPN2 (TC45) protein (Homo sapiens, UniProt P17706); assay: Mobility shift assay (MSA) to determine potency of PTPN2 inhibitors; type: biochemical; conditions: 0.5 nM enzyme, 2 μM substrate
T1 construct: made in house
T1 sequence (P17706 with tags, fused parts or gaps isoform P17706-2): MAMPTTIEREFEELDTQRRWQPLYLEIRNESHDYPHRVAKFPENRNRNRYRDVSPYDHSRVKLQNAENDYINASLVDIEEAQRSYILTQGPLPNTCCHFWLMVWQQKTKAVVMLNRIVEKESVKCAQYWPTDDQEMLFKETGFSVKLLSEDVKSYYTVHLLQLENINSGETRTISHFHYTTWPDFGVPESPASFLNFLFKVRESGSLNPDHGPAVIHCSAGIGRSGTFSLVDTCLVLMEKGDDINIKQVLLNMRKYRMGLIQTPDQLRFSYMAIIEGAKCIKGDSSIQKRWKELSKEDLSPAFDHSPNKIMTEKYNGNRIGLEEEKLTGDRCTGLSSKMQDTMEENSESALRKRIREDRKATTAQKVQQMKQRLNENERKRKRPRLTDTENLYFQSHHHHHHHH
Procedure, shortened: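 His-tagged human PTPN2 (TC45), 0.5 nM, preincubated 10 min at room temperature with compound (12-point, 1:3 dilutions) in HEPES pH 7.5 buffer with EGTA, EDTA, Tween 20 and DTT. Then 2 μM OG488-labelled phospho-insulin-receptor peptide was added for 10 min and quenched. % conversion was read by mobility shift, and IC50 came from % inhibition.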

[2] = target: T2, His tagged full-length PTPN1 protein (Homo sapiens, UniProt P18031); assay: Mobility shift assay (MSA) to determine potency of PTPN1 inhibitors; type: biochemical; conditions: 0.5 nM enzyme, 2 μM substrate
T2 construct: made in house
T2 sequence (P18031 with tags, fused parts or gaps): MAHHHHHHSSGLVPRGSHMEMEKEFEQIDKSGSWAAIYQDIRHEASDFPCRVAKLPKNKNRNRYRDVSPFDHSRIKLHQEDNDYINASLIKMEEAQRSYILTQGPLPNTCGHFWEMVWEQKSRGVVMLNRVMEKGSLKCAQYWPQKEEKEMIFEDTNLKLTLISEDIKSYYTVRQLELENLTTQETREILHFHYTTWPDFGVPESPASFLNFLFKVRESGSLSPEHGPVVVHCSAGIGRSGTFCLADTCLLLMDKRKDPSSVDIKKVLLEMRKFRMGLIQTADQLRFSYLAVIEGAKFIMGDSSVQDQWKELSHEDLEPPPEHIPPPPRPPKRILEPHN
Procedure, shortened: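 Readout is microfluidic mobility shift (ex 488/em 530 nm) of a 2 μM OG488-labelled pTyr insulin-receptor peptide after a 10 min room-temperature reaction, following 10 min enzyme–compound preincubation. Enzyme: 0.5 nM full-length His-tagged PTPN1 in HEPES pH 7.5 buffer. IC50 fitted from % inhibition at 12 concentrations (1:3 steps).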

For `O=C1CN(c2c(O)cc3c(c2F)C[C@H](NCC2COC2)CC3)S(=O)(=O)N1` [Compound 366, 5-[(7R)-1-fluoro-3-hydroxy-7-{[(oxetan-3-yl)methyl]amino}-5,6,7,8-tetrahydronaphthalen-2-yl]-1λ^6,2,5-thiadiazolidine-1,1,3-trione], the IC50 [1] was 10 to 100 nM and the IC50 [2] was 10 to 100 nM.

In the case of `NCCCN1CCc2cc(O)c(N3CC(=O)NS3(=O)=O)c(F)c2C1` [Compound 218], the IC50 [1] is reported as over 100 nM and the IC50 [2] is reported as 10 to 100 nM.

`O=C1CN(c2c(O)cc3c(c2F)C[C@H](NCCCC(F)F)CO3)S(=O)(=O)N1` [Compound 373, 5-{(3S)-3-[(4,4-difluorobutyl)amino]-5-fluoro-7-hydroxy-3,4-dihydro-2H-1-benzopyran-6-yl}-1λ^6,2,5-thiadiazolidine-1,1,3-trione] gave an IC50 [1] of 1 to 10 nM and an IC50 [2] of 10 to 100 nM.

With `NCC(F)(F)CCCN[C@@H]1CCc2cc(O)c(N3CC(=O)NS3(=O)=O)c(F)c2C1` [Compound 409, 5-{(7R)-7-[(5-amino-4,4-difluoropentyl)amino]-1-fluoro-3-hydroxy-5,6,7,8-tetrahydronaphthalen-2-yl}-1λ^6,2,5-thiadiazolidine-1,1,3-trione] the IC50 [1] was 1 to 10 nM and the IC50 [2] was 1 to 10 nM.

`CCCCN[C@@H]1CCc2cc(O)c(N3CC(=O)NS3(=O)=O)c(F)c2C1` [Compound 410, 5-[(7R)-7-(butylamino)-1-fluoro-3-hydroxy-5,6,7,8-tetrahydronaphthalen-2-yl]-1λ^6,2,5-thiadiazolidine-1,1,3-trione] gave an IC50 [1] of 1 to 10 nM and an IC50 [2] of 1 to 10 nM.

`O=C1CN(c2c(O)cc3c(c2F)CN(CCCc2cccc(C(F)(F)F)c2)CC3)S(=O)(=O)N1` [Compound 294] was tested, and the IC50 [1] was 10 to 100 nM and the IC50 [2] was 10 to 100 nM.

`O=C1CN(c2c(O)cc3c(c2F)C[C@H](NCCCOCC(F)F)CO3)S(=O)(=O)N1` [Compound 379, 5-[(3S)-3-{[3-(2,2-difluoroethoxy)propyl]amino}-5-fluoro-7-hydroxy-3,4-dihydro-2H-1-benzopyran-6-yl]-1λ^6,2,5-thiadiazolidine-1,1,3-trione] gave an IC50 [1] of 10 to 100 nM and an IC50 [2] of 10 to 100 nM.

`CN1CCN(CCCN2CCc3cc(O)c(N4CC(=O)NS4(=O)=O)c(F)c3C2)CC1` [Compound 232] gave an IC50 [1] of over 100 nM and an IC50 [2] of 10 to 100 nM.

`CC(C)CNCC1(O)CCc2cc(O)c(N3CC(=O)NS3(=O)=O)c(F)c2C1` (centres unmarked) [Compound 339, 5-(1-fluoro-3,7-dihydroxy-7-{[(2-methylpropyl)amino]methyl}-5,6,7,8-tetrahydronaphthalen-2-yl)-1λ^6,2,5-thiadiazolidine-1,1,3-trione] gave an IC50 [1] of 10 to 100 nM and an IC50 [2] of 10 to 100 nM.

`O=C1CN(c2c(O)cc3c(c2F)C[C@H](NCC2CC2(F)F)CC3)S(=O)(=O)N1` (stereo partly drawn) [Compound 362, 5-[(7R)-7-{[(2,2-difluorocyclopropyl)methyl]amino}-1-fluoro-3-hydroxy-5,6,7,8-tetrahydronaphthalen-2-yl]-1λ^6,2,5-thiadiazolidine-1,1,3-trione] showed an IC50 [1] of 10 to 100 nM and an IC50 [2] of 10 to 100 nM.

`O=C1CN(c2c(O)cc3c(c2F)CN(CCCC2CCCCC2)CC3)S(=O)(=O)N1` [Compound 286] was tested, and the IC50 [1] was 1 to 10 nM and the IC50 [2] was 1 to 10 nM.

For `NCC1CCc2cc(O)c(N3CC(=O)NS3(=O)=O)c(F)c2C1` (centres unmarked) [Compound 389, 5-[7-(aminomethyl)-1-fluoro-3-hydroxy-5,6,7,8-tetrahydronaphthalen-2-yl]-1λ^6,2,5-thiadiazolidine-1,1,3-trione], the IC50 [1] was 10 to 100 nM and the IC50 [2] was 10 to 100 nM.

`Cc1nn(C)c(C)c1CN1CCC(N2CCc3cc(O)c(N4CC(=O)NS4(=O)=O)c(F)c3C2)CC1` [Compound 236] was tested, and the IC50 [1] was over 100 nM and the IC50 [2] was 10 to 100 nM.

In the case of `CC1(CN[C@@H]2CCc3cc(O)c(N4CC(=O)NS4(=O)=O)c(F)c3C2)COC1` [Compound 344, 5-[(7R)-1-fluoro-3-hydroxy-7-{[(3-methyloxetan-3-yl)methyl]amino}-5,6,7,8-tetrahydronaphthalen-2-yl]-1λ^6,2,5-thiadiazolidine-1,1,3-trione], the IC50 [1] is reported as 1 to 10 nM and the IC50 [2] is reported as 10 to 100 nM.

Work on `O=C1CN(c2c(O)cc3c(c2F)C[C@H](NCCC2(CO)CCC2)CC3)S(=O)(=O)N1` [Compound 338, 5-[(7R)-1-fluoro-3-hydroxy-7-({2-[1-(hydroxymethyl)cyclobutyl]ethyl}amino)-5,6,7,8-tetrahydronaphthalen-2-yl]-1λ^6,2,5-thiadiazolidine-1,1,3-trione] yielded an IC50 [1] of under 1 nM and an IC50 [2] of 1 to 10 nM.

For `O=C1CN(c2c(O)cc3c(c2F)C[C@H](NCCC2CCCC2)CC3)S(=O)(=O)N1` [Compound 200, 5-{(7R)-7-[(2-cyclopentylethyl)amino]-1-fluoro-3-hydroxy-5,6,7,8-tetrahydronaphthalen-2-yl}-1λ^6,2,5-thiadiazolidine-1,1,3-trione], the IC50 [1] was under 1 nM and the IC50 [2] was under 1 nM.

Compound `C[C@@H](N)CN1CCc2cc(O)c(N3CC(=O)NS3(=O)=O)c(F)c2C1` [Compound 246] has an IC50 [1] of 10 to 100 nM and an IC50 [2] of 10 to 100 nM.

For `CC(CN[C@@H]1CCc2cc(O)c(N3CC(=O)NS3(=O)=O)c(F)c2C1)C(F)(F)F` (stereo partly drawn) [Compound 348, 5-{(7R)-1-fluoro-3-hydroxy-7-[(3,3,3-trifluoro-2-methylpropyl)amino]-5,6,7,8-tetrahydronaphthalen-2-yl}-1λ^6,2,5-thiadiazolidine-1,1,3-trione], the IC50 [1] was 1 to 10 nM and the IC50 [2] was 10 to 100 nM.

`N[C@H](CCC1CCCCC1)C(=O)N1CCc2cc(O)c(N3CC(=O)NS3(=O)=O)c(F)c2C1` [Compound 250] showed an IC50 [1] of 10 to 100 nM and an IC50 [2] of 10 to 100 nM.

`COCC(C)(C)CNC(=O)N1CCc2cc(O)c(N3CC(=O)NS3(=O)=O)c(F)c2C1` [Compound 279] gave an IC50 [1] of 10 to 100 nM and an IC50 [2] of 10 to 100 nM.

`Cc1noc(C)c1CCN1Cc2c(cc(O)c(N3CC(=O)NS3(=O)=O)c2F)C(F)(F)C1` [Compound 306] gave an IC50 [1] of over 100 nM and an IC50 [2] of over 100 nM.

`CC(C)(C)OC(=O)N[C@@H]1CCc2cc(O)c(N3CC(=O)NS3(=O)=O)c(F)c2C1` [Compound 341, tert-butyl [(2R)-8-fluoro-6-hydroxy-7-(1,1,4-trioxo-1λ^6,2,5-thiadiazolidin-2-yl)-1,2,3,4-tetrahydronaphthalen-2-yl]carbamate] gave an IC50 [1] of 10 to 100 nM and an IC50 [2] of 10 to 100 nM.

`CC1(C)CCc2c(cc(O)c(N3CC(=O)NS3(=O)=O)c2F)O1` [Compound 112] gave an IC50 [1] of over 100 nM and an IC50 [2] of over 100 nM.

`CCC(CC)CCN[C@@H]1CCc2cc(O)c(N3CC(=O)NS3(=O)=O)c(F)c2C1` [Compound 204] showed an IC50 [1] of under 1 nM and an IC50 [2] of 1 to 10 nM.

In the case of `O=C1CN(c2c(O)cc3c(c2F)CN(Cc2ccccn2)CC3)S(=O)(=O)N1` [Compound 184], the IC50 [1] is reported as over 100 nM and the IC50 [2] is reported as over 100 nM.

`CC1(C)CCc2cc(O)c(N3CC(=O)NS3(=O)=O)c(F)c2O1` [Compound 113] showed an IC50 [1] of over 100 nM and an IC50 [2] of over 100 nM.

`Cn1ccc(CN[C@@H]2CCc3cc(O)c(N4CC(=O)NS4(=O)=O)c(F)c3C2)c1` [Compound 346, 5-[(7R)-1-fluoro-3-hydroxy-7-{[(1-methyl-1H-pyrrol-3-yl)methyl]amino}-5,6,7,8-tetrahydronaphthalen-2-yl]-1λ^6,2,5-thiadiazolidine-1,1,3-trione] was tested, and the IC50 [1] was 1 to 10 nM and the IC50 [2] was 10 to 100 nM.

`O=C1CN(c2c(O)cc3c(c2F)C[C@H](NCC2(CF)CC2)CO3)S(=O)(=O)N1` [Compound 381, 5-[(3S)-5-fluoro-3-({[1-(fluoromethyl)cyclopropyl]methyl}amino)-7-hydroxy-3,4-dihydro-2H-1-benzopyran-6-yl]-1λ^6,2,5-thiadiazolidine-1,1,3-trione] was tested, and the IC50 [1] was 10 to 100 nM and the IC50 [2] was over 100 nM.

For `Cc1nn(C(C)C)c(C)c1CCN1CCc2cc(O)c(N3CC(=O)NS3(=O)=O)c(F)c2C1` [Compound 273], the IC50 [1] was 1 to 10 nM and the IC50 [2] was 1 to 10 nM.

Work on `CC1(CCNC(=O)N2CCc3cc(O)c(N4CC(=O)NS4(=O)=O)c(F)c3C2)CC1` [Compound 281] yielded an IC50 [1] of 10 to 100 nM and an IC50 [2] of 10 to 100 nM.

For `Cc1noc(C)c1CN1CCc2cc(O)c(N3CC(=O)NS3(=O)=O)c(F)c2C1` [Compound 208], the IC50 [1] was 10 to 100 nM and the IC50 [2] was 10 to 100 nM.

`Cc1nn(C)cc1CCN1CCc2cc(O)c(N3CC(=O)NS3(=O)=O)c(F)c2C1` [Compound 256] showed an IC50 [1] of 1 to 10 nM and an IC50 [2] of 1 to 10 nM.

Compound `CC(C)CCS(=O)(=O)NC1CCc2cc(O)c(N3CC(=O)NS3(=O)=O)c(F)c2C1` (centres unmarked) [Compound 332, N-[8-fluoro-6-hydroxy-7-(1,1,4-trioxo-1λ^6,2,5-thiadiazolidin-2-yl)-1,2,3,4-tetrahydronaphthalen-2-yl]-3-methylbutane-1-sulfonamide] has an IC50 [1] of 10 to 100 nM and an IC50 [2] of 10 to 100 nM.

Compound `CC1=C(CCN2CCc3cc(O)c(N4CC(=O)NS4(=O)=O)c(F)c3C2)C(C)(C)CCC1` [Compound 297] has an IC50 [1] of under 1 nM and an IC50 [2] of 1 to 10 nM.

From patent publication US20250122160A1, “PROTEIN TYROSINE PHOSPHATASE INHIBITORS AND METHODS OF USE THEREOF” (Calico Life Sciences LLC, priority 0001, published 2025)
